{"source": "patent US20230406812A1", "about": "“NOVEL AMINOAROMATIC COMPOUND OR PHARMACEUTICALLY ACCEPTABLE SALT THEREOF, AND PHARMACEUTICAL COMPOSITION FOR PREVENTING OR TREATING NEURODEGENERATIVE DISEASES COMPRISING SAME AS ACTIVE INGREDIENT” (INSTITUTE FOR BASIC SCIENCE, priority 2020, published 2023)", "key": {"[1]": {"tested_on": "APP/PS1 mouse hippocampus astrocytes (GFAP)", "assay": "Immunohistochemistry (IHC) I of brain tissue, GFAP", "assay_type": "in vivo", "conditions": "3 mg/kg/day IP for 16 days", "protocol": "(§1) The brain of the Alzheimer's animal model of Experimental Example 3 was fixed with formaldehyde, and sliced into a small thickness. The amount of cells or specific protein in the sliced brain was measured with an image by histochemical staining. In the present experimental example, an antibody labeling an astrocyte was used to measure a change in astrocytes related to dementia. The results are illustrated in FIG. 5. That is, in the present experimental example, the hippocampus of the brain was histologically stained and a change in astrocytes around dementia substance amyloid beta was observed. Glial fibrillary acidic protein (GFAP) refers to astrocytes staining, 4′,6-diamidino-2-phenylindole (DAPI) marked cell nuclei and amyloid beta substance."}, "[2]": {"assay": "Blood brain barrier (BBB) permeability analysis (PAMPA)", "assay_type": "in vitro ADME", "protocol": "Based on J Med Chem. 2001 Mar. 15; 44 (6):923-30., an artificial blood brain barrier (BBB) was produced by a parallel artificial membrane permeability assay (PAMPA), and the permeability of the drug was assessed."}, "APP/PS1 mouse [3]": {"tested_on": "APP/PS1 mouse", "assay": "Passive avoidance test (PAT) II", "assay_type": "in vivo", "protocol": "(§2) On the first day of PAT, as an acquisition session, the mouse was allowed to stay in a bright room, and after a certain time, a dark room was opened and a time for the mouse to enter the dark room was measured. When the mouse entered the dark room, an electrical shock (0.5 mA, 2 sec) was given by a foothold. On the second day, as a retrieval session, the mouse was placed in a bright room, and a time for the mouse to enter a dark room was measured. At this time, the door of the dark room was opened first.\n3 mg/kg/day (3 mpk) and 10 mg/kg/day (10 mpk) of the aminoaromatic compound of the present invention, KDS12025 (Example 21) was intraperitoneally injected into the APP/PS1 mouse which is used as an Alzheimer's animal model for one week, and the passive avoidance test was performed in the same manner as in Experimental Example 3. The results are illustrated in FIG. 6."}, "APP/PS1 mouse [4]": {"tested_on": "APP/PS1 mouse", "assay": "Passive avoidance test (PAT) I", "assay_type": "in vivo", "conditions": "3 mg/kg/day IP for 16 days", "protocol": "A passive avoidance test is an experiment to check the memory of animals, in which a weak electric stimulation was given in a dark room and it was assessed whether the animal remembered the electrical stimulation.\nSince mice preferred a dark room, they have a tendency to move quickly to a dark room when they are in a bright room. […] A time to move from a bright room to a dark room (latency to dark room, sec) was measured, thereby measuring memory of a combination of the electrical stimulation and the dark room. An APP/PS1 mouse which is used as an Alzheimer's animal model was used to perform the passive avoidance test (FIG. 4). A wild type (WT) mouse was used as a control group.\nas §2\nThe APP/PS1 dementia mouse was intraperitoneally injected with the aminoaromatic compound of the present invention (KDS12008 (Example 1), KDS12017 (Example 16), or KDS12025 (Example 21)) (KDS12008 (Example 1) 30 mg/kg/day (30 mpk); KDS12017 (Example 16) 30 mg/kg/day (30 mpk); KDS12025 (Example 21) 3 mg/kg/day (3 mpk)) for 16 days (intraperitoneal injection, IP)."}, "[5]": {"tested_on": "APP/PS1 mouse hippocampus cells", "assay": "Electrophysiology experiment (tonic GABA)", "assay_type": "in vivo", "conditions": "3 mg/kg/day or 10 mg/kg/day", "protocol": "The Alzheimer's animal model of Experimental Example 5 was used to confirm the influence of astrocytes and the mechanism causing memory impairment in dementia through an electrophysiology experiment.\nTherefore, in the present experimental example, each of the APP/PS1 mouse as the Alzheimer's animal model, the APP/PS1 mouse treated with 3 mg/kg/day or 10 mg/kg/day, respectively, of the aminoaromatic compound of the present invention, KDS12025 (Example 21), and a healthy normal mouse (wild type, WT) was anesthetized, and brain tissues were obtained therefrom to measure an electrical signal of living hippocampus cells. Thus, the tonic GABA which inhibits neurotransmission in a brain cell was measured. The results are illustrated in FIG. 8."}, "hemoglobin (Hb)": {"target": "hemoglobin (Hb) (Homo sapiens, UniProt P68871+P69905)", "sequence (P69905 2-142 limits assumed)": "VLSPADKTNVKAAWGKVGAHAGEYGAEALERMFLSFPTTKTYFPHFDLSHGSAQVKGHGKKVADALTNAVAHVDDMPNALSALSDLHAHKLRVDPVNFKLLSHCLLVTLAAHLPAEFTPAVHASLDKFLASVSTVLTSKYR", "sequence (P68871 2-147 limits assumed)": "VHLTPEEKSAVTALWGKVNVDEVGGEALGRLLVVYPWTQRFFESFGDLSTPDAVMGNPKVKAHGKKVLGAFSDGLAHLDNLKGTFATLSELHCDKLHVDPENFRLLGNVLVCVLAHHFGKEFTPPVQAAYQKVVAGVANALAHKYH", "assay": "Hydrogen peroxide scavenging ability with hemoglobin (Amplex Red H2O2 assay)", "assay_type": "biochemical", "conditions": "10 μM H2O2, 80 μg/ml hemoglobin, 37° C. about 30 minutes", "protocol": "Amplex Red is a means which turns into a fluorescent substance called resorufin when horse radish peroxidase (HRP) and H2O2 exist together and allows measurement of changes in H2O2, that is, H2O2 assay. […] The experiment was performed by adding hemoglobin instead of HRP to the H2O2 assay by Amplex Red (FIG. 1). The final concentration of each substance was 10 μM of H2O2 and 80 μg/ml of hemoglobin, and the aminoaromatic compound of the present invention was treated by concentration. After the reaction at 37° C. for about 30 minutes as such, fluorescence (excitation: 540 nm, emission: 580 nm) was measured by a microplate reader. At this time, it can be said that fluorescence is proportional to the amount of H2O2. Normalization was performed for each concentration based on a fluorescence value without a drug, and a value at which the fluorescence value was 50%, that is, a half maximal effective concentration (EC50) was determined by a program through statistical processing. The results are shown in the following Table 2, and AAD-2004 was used as a control group."}, "WT mouse (C57BL/6 mouse)": {"tested_on": "WT mouse (C57BL/6 mouse)", "assay": "Single toxicity assessment (lethal dose 50, LD50)", "assay_type": "in vivo", "protocol": "The aminoaromatic compound of the present invention, KDS12008 (Example 1), KDS12017 (Example 16), or KDS12025 (Example 21) was intraperitoneally injected at a single dose of 100, 300, and 1000 mg/kg, respectively, into a WT mouse at about 8 weeks of age (C57BL/6 mouse), and it was assessed whether the animal was dead."}, "[6]": {"tested_on": "APP/PS1 mouse hippocampus astrocytes (GFAP)", "assay": "Immunohistochemistry (IHC) II of brain tissue", "assay_type": "in vivo", "protocol": "as §1\nThe Alzheimer's animal model of Experimental Example 5 was used to perform histochemical staining of the brain tissue in the same manner as in Experimental Example 4, and the results are shown in FIG. 7."}, "[7]": {"tested_on": "APP/PS1+GiD Alzheimer's model mouse (APP+DTR)", "assay": "Passive avoidance test (PAT) in APP/PS1+GiD mouse", "assay_type": "in vivo", "protocol": "In the present experiment, APP/PS1+GiD was produced by injecting AAV-GFAP104-DTR-GFP virus into the hippocampus of the APP/PS1 mouse, and hereinafter, is referred to as “APP+DTR”. In addition, the product obtained by injecting AAV-GFAP104-GFP virus into the hippocampus of the APP/PS1 mouse was referred to as “APP+GFP”. In addition, APP+DTR to which the aminoaromatic compound of the present invention, KDS12025 (Example 21) was administered was referred to as “APP+DTR+KDS12025”. In addition, as the WT mouse, APP/PS1 and littermate were used, and the product obtained by injecting AAV-GFAP104-GFP virus into the hippocampus of the WT mouse was referred to as “WT+GFP” and the product obtained by injecting AAV-GFAP104-DTR-GFP virus into the hippocampus of the WT mouse was referred to as “WT+DTR”.\nIn addition, as a result of PAT, the normal mouse (WT+GFP) remembered the dark room where it was given an electrical stimulation well and took a long time to enter the dark room."}, "[8]": {"tested_on": "APP/PS1+GiD Alzheimer's model mouse (APP+DTR)", "assay": "Novel place recognition experiment", "assay_type": "in vivo", "conditions": "3 mg/kg/day i.p.", "protocol": "The cognitive function related to hippocampus was assessed by a novel place recognition experiment to confirm the cognitive impairment and recovery. The same objects were put for a certain period of time for interaction, and after one hour, the position of only one object was changed. When having a normal cognitive function, a past memory is maintained to grow interest in a new object, but when having cognitive impairment, a new place is not determined. At this time, as an animal model, an APP/PS1+GiD Alzheimer's mode mouse which is a more closely developed model mouse to the phenomenon shown in the Alzheimer's dementia patient was used. The APP/PS1+GiD Alzheimer's model mouse was produced referring to Nature Neuroscience 23, 1555-1566 (2020).\nIn the present experiment, APP/PS1+GiD was produced by injecting AAV-GFAP104-DTR-GFP virus into the hippocampus of the APP/PS1 mouse, and hereinafter, is referred to as “APP+DTR”. In addition, the product obtained by injecting AAV-GFAP104-GFP virus into the hippocampus of the APP/PS1 mouse was referred to as “APP+GFP”. In addition, APP+DTR to which the aminoaromatic compound of the present invention, KDS12025 (Example 21) was administered was referred to as “APP+DTR+KDS12025”. […]"}}, "data": [{"compound": "CNc1ccc(NCCc2ccccc2OC)cc1", "note": "[Example 21]", "values": [{"measurement": "GFAP (astrocytes) in hippocampus", "setting": "[1]", "value": "decreased GFAP"}, {"measurement": "Papp at 50 μM", "setting": "[2]", "value": 67.4, "unit": "×10⁻⁶ cm/s"}, {"measurement": "memory in passive avoidance test", "setting": "APP/PS1 mouse [3]; 3 mg/kg/day IP for one week", "value": "maintained its memory similarly to the healthy normal mouse"}, {"measurement": "memory in passive avoidance test", "setting": "APP/PS1 mouse [3]; 10 mg/kg/day IP for one week", "value": "maintained its memory similarly to the healthy normal mouse"}, {"measurement": "latency to dark room (impaired memory)", "setting": "APP/PS1 mouse [4]", "value": "significantly recovered"}, {"measurement": "tonic GABA", "setting": "[5]", "value": "decreased tonic GABA"}, {"measurement": "EC50", "setting": "hemoglobin (Hb)", "value": 60, "unit": "nM"}, {"measurement": "animals died", "setting": "WT mouse (C57BL/6 mouse); C57BL/6, mouse, in vivo, ip, 300 mg/kg", "value": "about 50%"}, {"measurement": "toxicity (death of animals)", "setting": "WT mouse (C57BL/6 mouse); mouse, in vivo, ip, 1000 mg/kg", "value": "showed toxicity"}, {"measurement": "lethal toxicity", "setting": "WT mouse (C57BL/6 mouse); single dose 100 mg/kg IP, C57BL/6 mouse", "value": "lethal toxicity was not shown"}, {"measurement": "astrocytes (GFAP staining) in hippocampus", "setting": "[6]; 3 mg/kg/day IP for one week", "value": "astrocytes returned to a healthy normal level"}, {"measurement": "astrocytes (GFAP staining) in hippocampus", "setting": "[6]; 10 mg/kg/day IP for one week", "value": "astrocytes returned to a healthy normal level"}, {"measurement": "memory in passive avoidance test", "setting": "[7]", "value": "recovered memory"}, {"measurement": "cognitive function (novel place recognition)", "setting": "[8]", "value": "recovered cognitive function"}]}]}
